# Laboratory results from publication PMC8185074, “Anchor extension: a structure-guided approach to design cyclic peptides targeting enzyme active sites” (Nature Communications, 2021).
# Peptide text beside a SMILES is read from it.
# Key:
# Type in all cases: biochemical
# HDAC6 = target: T1, HDAC6 (Homo sapiens, UniProt Q9UBN7); test: HDAC6 inhibition, full IC50 measurement (Reaction Biology; fluorogenic p53 peptide RHKK(Ac)AMC)
# T1 construct: purchased Reaction Biology Corporation (assay run by the CRO)
# T1 sequence (Q9UBN7 1-1215): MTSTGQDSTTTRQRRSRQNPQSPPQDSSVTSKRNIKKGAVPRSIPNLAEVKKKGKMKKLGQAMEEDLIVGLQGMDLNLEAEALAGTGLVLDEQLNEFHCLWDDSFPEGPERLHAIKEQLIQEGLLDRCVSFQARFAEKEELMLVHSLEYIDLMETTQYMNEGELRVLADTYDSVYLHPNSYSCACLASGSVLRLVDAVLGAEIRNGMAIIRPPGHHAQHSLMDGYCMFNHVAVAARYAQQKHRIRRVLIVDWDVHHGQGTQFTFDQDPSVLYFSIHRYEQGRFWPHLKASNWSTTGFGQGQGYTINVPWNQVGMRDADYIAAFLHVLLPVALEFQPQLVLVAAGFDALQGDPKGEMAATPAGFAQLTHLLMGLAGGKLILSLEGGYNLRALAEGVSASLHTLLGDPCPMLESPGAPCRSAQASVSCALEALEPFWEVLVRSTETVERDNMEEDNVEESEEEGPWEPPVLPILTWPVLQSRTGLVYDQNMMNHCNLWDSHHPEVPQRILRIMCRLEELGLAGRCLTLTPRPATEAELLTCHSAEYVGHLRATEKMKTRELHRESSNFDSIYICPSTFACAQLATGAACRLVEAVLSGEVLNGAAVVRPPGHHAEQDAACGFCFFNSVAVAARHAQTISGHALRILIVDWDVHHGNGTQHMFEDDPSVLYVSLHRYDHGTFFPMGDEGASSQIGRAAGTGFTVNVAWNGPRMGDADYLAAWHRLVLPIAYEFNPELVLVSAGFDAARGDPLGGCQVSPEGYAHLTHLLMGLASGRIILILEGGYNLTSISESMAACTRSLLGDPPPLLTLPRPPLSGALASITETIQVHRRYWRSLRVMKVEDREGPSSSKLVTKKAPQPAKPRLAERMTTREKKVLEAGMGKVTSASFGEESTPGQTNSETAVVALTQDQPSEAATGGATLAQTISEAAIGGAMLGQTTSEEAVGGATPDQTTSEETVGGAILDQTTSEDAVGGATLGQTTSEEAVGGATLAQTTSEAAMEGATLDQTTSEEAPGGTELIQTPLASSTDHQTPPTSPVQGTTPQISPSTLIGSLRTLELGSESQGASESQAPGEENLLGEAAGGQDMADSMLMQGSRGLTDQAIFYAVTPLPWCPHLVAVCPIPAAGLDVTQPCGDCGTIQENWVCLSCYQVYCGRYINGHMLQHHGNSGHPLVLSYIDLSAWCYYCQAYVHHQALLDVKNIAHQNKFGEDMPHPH
# Summary of the method: (§1)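 Reaction: enzyme plus acoustically dispensed peptide inhibitor, 50 μM RHKK(Ac)AMC substrate, pH 8.0 Tris buffer with BSA and 1% DMSO, 1 h, 30 °C. Duplicates averaged.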
# HDAC3 = target: T2, HDAC3 (Homo sapiens, UniProt O15379); test: HDAC3 inhibition, full IC50 measurement (Reaction Biology; fluorogenic p53 peptide RHKK(Ac)AMC)
# T2 construct: purchased Reaction Biology Corporation (assay run by the CRO)
# Summary of the method: as §1
# HDAC8 = target: T3, HDAC8 (Homo sapiens, UniProt Q9BY41); test: HDAC8 inhibition, full IC50 measurement (Reaction Biology; fluorogenic p53 peptide RHKK(Ac)AMC); conditions: for HDAC8 activity raw data (signal): t1/t2 replicates
# T3 construct: purchased Reaction Biology Corporation (assay run by the CRO)
# T3 sequence (Q9BY41 1-377): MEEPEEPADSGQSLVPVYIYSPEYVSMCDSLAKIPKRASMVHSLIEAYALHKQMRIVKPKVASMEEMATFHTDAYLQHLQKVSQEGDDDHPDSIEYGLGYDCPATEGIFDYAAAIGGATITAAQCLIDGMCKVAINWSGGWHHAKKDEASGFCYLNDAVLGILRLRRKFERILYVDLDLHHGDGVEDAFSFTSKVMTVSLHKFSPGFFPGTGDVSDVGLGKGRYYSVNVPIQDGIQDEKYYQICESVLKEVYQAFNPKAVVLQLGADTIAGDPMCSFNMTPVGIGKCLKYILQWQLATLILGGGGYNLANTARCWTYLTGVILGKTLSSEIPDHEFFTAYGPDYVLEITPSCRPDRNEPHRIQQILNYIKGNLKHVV
# Summary of the method: as §1
# T2 sequence (O15379 whole entry): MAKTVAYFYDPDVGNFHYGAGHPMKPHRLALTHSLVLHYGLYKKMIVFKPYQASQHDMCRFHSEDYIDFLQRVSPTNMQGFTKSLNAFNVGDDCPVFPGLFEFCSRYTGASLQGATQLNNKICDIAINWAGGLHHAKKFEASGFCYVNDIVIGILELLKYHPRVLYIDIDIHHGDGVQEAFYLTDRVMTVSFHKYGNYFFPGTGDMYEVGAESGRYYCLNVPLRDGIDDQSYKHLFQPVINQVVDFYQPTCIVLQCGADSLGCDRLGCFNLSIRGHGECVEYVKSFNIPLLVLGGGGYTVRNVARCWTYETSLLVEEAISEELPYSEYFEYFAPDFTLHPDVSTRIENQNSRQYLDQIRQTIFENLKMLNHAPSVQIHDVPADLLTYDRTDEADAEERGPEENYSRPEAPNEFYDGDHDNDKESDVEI
# T2 sequence (Q9Y618 395-489 partner limits assumed): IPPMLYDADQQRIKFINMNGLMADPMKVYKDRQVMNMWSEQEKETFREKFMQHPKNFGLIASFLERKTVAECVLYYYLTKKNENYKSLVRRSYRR
compound,measurement,setting,value
"CC(C)[C@@H]1NC(=O)[C@H](CCCNC(=N)N)NC(=O)[C@@H](CC(=O)O)NC(=O)[C@H](CO)NC(=O)[C@@H](CO)NC(=O)[C@@H](CCC(=O)O)NC(=O)[C@H](Cc2ccc(O)cc2)NC(=O)[C@H](CCCCCS)NC1=O [des4.2.0, SHA-Tyr-dGlu-dSer-Ser-dAsp-Arg-Val] (HELM PEPTIDE1{R.V.[O=C([C@H](CCCCCS)N[*:1])[*:2]].Y.[dE].[dS].S.[dD]}$PEPTIDE1,PEPTIDE1,1:R1-8:R2$$$V2.0)",HDAC6 activity raw data (signal),"HDAC6; Conc. 1.00E-05 M, t1",-7055
same,HDAC6 activity raw data (signal),"HDAC6; Conc. 1.00E-05 M, t2",-3082
same,HDAC6 activity raw data (signal),"HDAC6; Conc. 1.11E-06 M, t1",103285
same,HDAC6 activity raw data (signal),"HDAC6; Conc. 1.11E-06 M, t2",106610
same,HDAC6 activity raw data (signal),"HDAC6; Conc. 1.23E-07 M, t1",299609
same,HDAC6 activity raw data (signal),"HDAC6; Conc. 1.23E-07 M, t2",290391
same,HDAC6 activity raw data (signal),"HDAC6; Conc. 1.37E-08 M, t1",820280
same,HDAC6 activity raw data (signal),"HDAC6; Conc. 1.37E-08 M, t2",820159
same,HDAC6 activity raw data (signal),"HDAC6; Conc. 1.52E-09 M, t1",1558048
same,HDAC6 activity raw data (signal),"HDAC6; Conc. 1.52E-09 M, t2",1527304
same,HDAC6 activity raw data (signal),"HDAC6; Conc. 3.33E-06 M, t1",43007
same,HDAC6 activity raw data (signal),"HDAC6; Conc. 3.33E-06 M, t2",45218
same,HDAC6 activity raw data (signal),"HDAC6; Conc. 3.70E-07 M, t1",181567
same,HDAC6 activity raw data (signal),"HDAC6; Conc. 3.70E-07 M, t2",190636
same,HDAC6 activity raw data (signal),"HDAC6; Conc. 4.12E-08 M, t1",459108
same,HDAC6 activity raw data (signal),"HDAC6; Conc. 4.12E-08 M, t2",432840
same,HDAC6 activity raw data (signal),"HDAC6; Conc. 4.57E-09 M, t1",1111578
same,HDAC6 activity raw data (signal),"HDAC6; Conc. 4.57E-09 M, t2",1107939
same,HDAC6 activity raw data (signal),"HDAC6; Conc. 5.08E-10 M, t1",1904356
same,HDAC6 activity raw data (signal),"HDAC6; Conc. 5.08E-10 M, t2",1828745
same,selectivity for HDAC6 over HDAC8,HDAC6; Supp. Table 8,80 fold
same,selectivity for HDAC6 over HDACs1/2/3,HDAC6; Supp. Table 8,> 10 fold
same,IC50,"HDAC6; figure legends, Supp. Tables 1 and 8, read-out: HDAC6 IC50",0.0044 µM
same,HDAC3 activity raw data (signal),"HDAC3; Conc. 1.00E-05 M, t1",26422
same,HDAC3 activity raw data (signal),"HDAC3; Conc. 1.00E-05 M, t2",22359
same,HDAC3 activity raw data (signal),"HDAC3; Conc. 1.11E-06 M, t1",160928
same,HDAC3 activity raw data (signal),"HDAC3; Conc. 1.11E-06 M, t2",163740
same,HDAC3 activity raw data (signal),"HDAC3; Conc. 1.23E-07 M, t1",525206
same,HDAC3 activity raw data (signal),"HDAC3; Conc. 1.23E-07 M, t2",581691
same,HDAC3 activity raw data (signal),"HDAC3; Conc. 1.37E-08 M, t1",1076943
same,HDAC3 activity raw data (signal),"HDAC3; Conc. 1.37E-08 M, t2",1111273
same,HDAC3 activity raw data (signal),"HDAC3; Conc. 1.52E-09 M, t1",1186064
same,HDAC3 activity raw data (signal),"HDAC3; Conc. 1.52E-09 M, t2",1359852
same,HDAC3 activity raw data (signal),"HDAC3; Conc. 3.33E-06 M, t1",71800
same,HDAC3 activity raw data (signal),"HDAC3; Conc. 3.33E-06 M, t2",63219
same,HDAC3 activity raw data (signal),"HDAC3; Conc. 3.70E-07 M, t1",296381
same,HDAC3 activity raw data (signal),"HDAC3; Conc. 3.70E-07 M, t2",296142
same,HDAC3 activity raw data (signal),"HDAC3; Conc. 4.12E-08 M, t1",806773
same,HDAC3 activity raw data (signal),"HDAC3; Conc. 4.12E-08 M, t2",863981
same,HDAC3 activity raw data (signal),"HDAC3; Conc. 4.57E-09 M, t1",1182733
same,HDAC3 activity raw data (signal),"HDAC3; Conc. 4.57E-09 M, t2",1313514
same,HDAC3 activity raw data (signal),"HDAC3; Conc. 5.08E-10 M, t1",1345816
same,HDAC3 activity raw data (signal),"HDAC3; Conc. 5.08E-10 M, t2",1394913
same,IC50,HDAC3; Supp. Table 1,0.0712 µM
same,IC50,HDAC8; Supp. Table 1,0.37 µM
same,HDAC8 activity raw data (signal),"HDAC8; peptide conc. 1.00E-05 M, listed as des4.2.0_t1",92279
same,HDAC8 activity raw data (signal),"HDAC8; peptide conc. 1.00E-05 M, listed as des4.2.0_t2",81671
same,HDAC8 activity raw data (signal),"HDAC8; peptide conc. 1.11E-06 M, listed as des4.2.0_t1",396585
same,HDAC8 activity raw data (signal),"HDAC8; peptide conc. 1.11E-06 M, listed as des4.2.0_t2",434279
same,HDAC8 activity raw data (signal),"HDAC8; peptide conc. 1.23E-07 M, listed as des4.2.0_t1",727023
same,HDAC8 activity raw data (signal),"HDAC8; peptide conc. 1.23E-07 M, listed as des4.2.0_t2",752193
same,HDAC8 activity raw data (signal),"HDAC8; peptide conc. 1.37E-08 M, listed as des4.2.0_t1",1107635
same,HDAC8 activity raw data (signal),"HDAC8; peptide conc. 1.37E-08 M, listed as des4.2.0_t2",1031405
same,HDAC8 activity raw data (signal),"HDAC8; peptide conc. 1.52E-09 M, listed as des4.2.0_t1",1115979
same,HDAC8 activity raw data (signal),"HDAC8; peptide conc. 1.52E-09 M, listed as des4.2.0_t2",1078250
same,HDAC8 activity raw data (signal),"HDAC8; peptide conc. 3.33E-06 M, listed as des4.2.0_t1",190039
same,HDAC8 activity raw data (signal),"HDAC8; peptide conc. 3.33E-06 M, listed as des4.2.0_t2",213758
same,HDAC8 activity raw data (signal),"HDAC8; peptide conc. 3.70E-07 M, listed as des4.2.0_t1",540901
same,HDAC8 activity raw data (signal),"HDAC8; peptide conc. 3.70E-07 M, listed as des4.2.0_t2",562035
same,HDAC8 activity raw data (signal),"HDAC8; peptide conc. 4.12E-08 M, listed as des4.2.0_t1",828599
same,HDAC8 activity raw data (signal),"HDAC8; peptide conc. 4.12E-08 M, listed as des4.2.0_t2",842494
same,HDAC8 activity raw data (signal),"HDAC8; peptide conc. 4.57E-09 M, listed as des4.2.0_t1",599790
same,HDAC8 activity raw data (signal),"HDAC8; peptide conc. 4.57E-09 M, listed as des4.2.0_t2",1026390
same,HDAC8 activity raw data (signal),"HDAC8; peptide conc. 5.08E-10 M, listed as des4.2.0_t1",1085628
same,HDAC8 activity raw data (signal),"HDAC8; peptide conc. 5.08E-10 M, listed as des4.2.0_t2",1128546
